Biological target: T1, pyruvate dehydrogenase complex (PDHC)
T1 construct: gene PDHA1; native mitochondrial complex isolated from porcine heart; with PDHB (E1 beta) and the other subunits of the complex
Experiment: spectrophotometric PDHC kinetics at […] nm, Lineweaver-Burk, Ki from the shift of Km for TPP
Type: biochemical, Sus scrofa
Settings: read-out: Kinetic parameters / Ki

Ki [nM]	Compound
25 ± 15	Cc1ncc(C[n+]2csc(CCOP(=O)(O)OP(=O)(O)O)c2C)c(O)n1 [compound 18, oxythiamine pyrophosphate]
2.6 ± 0.9	Cc1ncc(Cc2csc(CCOP(=O)(O)OP(=O)(O)O)c2C)c(N)n1 [compound 15, 3-deazathiamine pyrophosphate]
